Assays:
[1] = target: T1, aggregated amylin (amyloid) (Homo sapiens, UniProt P10997); assay: Inhibition of binding of Thioflavin T to amyloid derived from amylin; details: Thioflavin T 5 μmol/L
T1 construct: Amylin (human) (manufactured by Wako); purchased Wako
T1 sequence (P10997 34-70 limits assumed): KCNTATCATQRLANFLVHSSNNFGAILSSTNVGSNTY
Method: Amylin is an amyloid accumulating in pancreas of type II diabetes.
(1) Amylin (human) (manufactured by Wako) was dissolved in phosphate buffer (pH 7.4) and shaken at 37° C. for 72 hours, to obtain a 1 mg/mL suspension of aggregated amylin (hereinafter referred to as amyloid suspension in this Example).
(2) According to the method described in a literature (Naiki, H., et al., Laboratory
(3) The amyloid suspension was dissolved in 50 mM phosphate buffer (pH 7.4) at a concentration of amylin of 15 μM.
(4) Samples in which each compound for evaluation and amyloid were dissolved in a 50 mM phosphate buffer (pH 7.4) at final concentrations shown in Table 9 were prepared.
(5) A sample in which 100 μL of 50 mM phosphate buffer (pH 7.4) and 50 μL of 50 mM glycin-NaOH buffer were mixed was made as a blank, and subjected to the same procedure as in (4) and used for a calculation of inhibition ratio.
(6) The microplate filled with the sample solutions was left to stand still at room temperature for 30 hours.
(7) Using the fluorescence strength measured above in (6), the following formula (6): […]
was used to determine the inhibition ratio.

[2] = Partition coefficient based on the octanol extraction method; assay type: physicochemical; details: octanol / 10 mmol/L phosphate buffer (pH 7.4)
Method: Partition coefficients based on the octanol extraction method (hereinafter referred to as log Poctanol) were measured, which are generally known as an indicator of permeability of compounds through the blood-brain barrier (hereinafter referred to as BBB).
A diethyl ether solution of Compound 1 prepared in Example 3 (Example 8), a diethyl ether solution of Compound 2 prepared in Example 6 (Example 9), and a diethyl ether solution of [^123I]-IMPY prepared in Reference Example 1 (Comparative Example 4) were each diluted with 10 mg/mL ascorbic acid-containing physiological saline solution, and adjusted to a radioactive concentration of 20-30 MBq/mL. To 2 mL of octanol, 10 μL each of the prepared sample solutions was added, 2 mL of 10 mmol/L phosphate buffer (pH 7.4) was added, followed by stirring for 30 seconds. After the mixture was centrifuged with a low-speed centrifuge (2000 rpm×60 min.), the octanol layer and the water layer were sampled each in an amount of 1 mL, and subjected to measurement of radioactivity count with an autowell gamma system (Type: ARC-301B, manufactured by Aloka). Using the obtained radioactivity count, log Poctanol was calculated in accordance with the equation (2).
A diethyl ether solution (Example 20) of Compound 4 prepared in Example 16, a diethyl ether solution (Example 21) of Compound 6 prepared in Example 19, and a diethyl ether solution (Comparative Example 7) of [^123I]-IMPY were each diluted with a 10 mg/mL ascorbic acid-containing physiological saline solution to adjust to a radioactive concentration of 20-30 MBq/mL. To 2 mL of octanol, 10 μL each of the prepared sample solution was added, and 2 mL of 10 mmol/L phosphate buffer (pH 7.4) was further added, followed by stirring for 30 seconds. After the mixture was centrifuged with a low-speed centrifuge (2000 rpm×60 min.), the octanol layer and the water layer were sampled each in an amount of 1 mL, and subjected to measurement of radioactivity count with an autowell gamma system (Type: ARC-301B, manufactured by Aloka). Using the obtained radioactivity count, logPoctanol was calculated in accordance with the equation (4).

insulin amyloid = target: T2, insulin amyloid (Homo sapiens, UniProt P01308); assay: In vitro binding of labeled compound to insulin amyloid (glass fiber filter); details: insulin amyloid 0.8 μg/mL, 22° C., 3 hours
T2 construct: 5 mg of insulin (manufactured by Sigma Aldrich Japan); purchased Sigma Aldrich Japan
T2 sequence (P01308 25-54 limits assumed): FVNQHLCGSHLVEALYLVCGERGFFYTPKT
T2 sequence (P01308 90-110 limits assumed): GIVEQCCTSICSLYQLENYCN
Method: Insulin with cross -sheet structure was prepared by the following procedures (2) and (3) which was the method described in the known literature (Burke, M. J. et al., Biochemistry. 11, p. 2435-2439 (1972)) to which a little modification was made.
(2) 5 mg of insulin (manufactured by Sigma Aldrich Japan) was dissolved in 1 mL of deionized water which was adjusted to pH 2 with hydrochloric acid, and the solution was heated at 90° C. for 10 minutes, and then quickly cooled in dry ice/ethanol.
(3) A sample solution of (2) was heated at 90° C. for 5 minutes, and then quickly cooled in dry ice/ethanol. […]
(§1) (8) A solution of Compound 1 which was synthesized by the method above in Example 3 was prepared (radioactivity of 500 MBq/mL), and diluted with a 0.1% bovine serum albumin-containing phosphate buffer (pH 7.4) to prepare a solution of 1.2-112.9 pM in terms of the total amount of 2-[4′-(2″-hydroxyethoxy)phenyl]-6-iodoimidazo[1,2-a]pyridine. […]
(§2) (11) The glass fiber filter used for the filtration of the mixture was washed with a 0.1% bovine serum albumin-containing phosphate buffer (0.2 mL×5), and radioactivity of the glass fiber filter was measured with an autowell gamma system (manufactured by Aloka, Type: ARC-7001).
(12) From the measurement results of (11), relation between the amount of Compound 1 binding to amyloid and addition amount of amyloid was evaluated. […]

amylin amyloid = target: T3, amylin amyloid (Homo sapiens, UniProt P10997); assay: In vitro binding of labeled compound to amylin amyloid (glass fiber filter); details: amylin amyloid 0.8 μg/mL, 22° C., 3 hours
T3 construct: Amylin (human) (manufactured by Wako); purchased Wako
T3 sequence (P10997 34-70 limits assumed): T1 sequence (P10997 34-70 limits assumed)
Method: (1) Using methods described in Examples 29 and 30, a 1 mg/mL suspension of aggregated amylin was prepared (hereinafter referred to as amyloid suspension in this Example) was prepared.
as §1, §2
(12) From the measurement results of (11), relation between the amount of Compound 1 binding to amyloid and addition amount of amyloid was evaluated. For a non-specific binding, it was determined from a sample in which no amyloid suspension was added above in (9) (Example 36). […]

Row | Inhibition ratio (%) of binding of amyloid (amylin) to Thioflavin T ([1]; compound 1.5 μmol/L) [%] | Inhibition ratio (%) of binding of amyloid (amylin) to Thioflavin T ([1]; compound 15 μmol/L) [%] | Inhibition ratio (%) of binding of amyloid (amylin) to Thioflavin T ([1]; compound 30 μmol/L) [%] | logPoctanol value ([2]; Table 4, Examples 8-9) | logPoctanol value ([2]; Table 6, Examples 20-21) | Substance | Radioactivity of the glass fiber filter versus amyloid non-added group (insulin amyloid) | Radioactivity of the glass fiber filter versus amyloid non-added group (amylin amyloid)
1 | 37.1 | 46.9 | 53.0 | 2.1 |  | 2-(4′-ethoxyphenyl)-6-[^123I]iodoimidazo[1,2-a]pyridine [Compound 2] |  | 
2 | 34.4 | 51.3 | 46.8 | 1.8 |  | 2-[4′-(2″-hydroxyethoxy)phenyl]-6-[^123I]iodoimidazo[1,2-a]pyridine [Compound 1] | all high compared to the group without amyloid suspension | all high compared to the group without amyloid suspension
3 |  |  |  |  | 2.1 | 2-[4′-(3″-hydroxypropoxy)phenyl]-6-[^123I]iodoimidazo[1,2-a]pyridine [Compound 6] | all high compared to the group without amyloid suspension | all high compared to the group without amyloid suspension

Reference: patent publication US20100249419A1, “UTILIZATION OF NOVEL COMPOUNDS WITH AMYLOID AFFINITY AND METHOD OF PRODUCING THE SAME” (NIHON MEDI-PHYSICS CO., LTD., priority 2007, published 2010)
